Results taken from patent US9180163B2, “Parstatin peptides” (priority 2009, dated 2015).

What was measured:
[1] = system: Akt (Ser473), endothelial NOS (Ser1177); assay: immunoblot of phospho-Akt and phospho-eNOS in left ventricle after ischemia-reperfusion; assay type: in vivo, rat
Description: To determine whether the cardioprotective effect of parstatin (1-26) is mediated through the PI3K/Akt pathway, rats were treated with wortmannin (15 μg/Kg, a potent and specific PI3K inhibitor) alone or in combination with parstatin fragment 1-26 (1 μg/Kg). Wortmannin abrogated the cardioprotective effects of parstatin (1-26) (FIG. 24B). In addition, the left ventricular free wall tissue was homogenized and immunoblot analysis was performed using an anti-phospho-Akt (Ser473) primary antibody (Cell Signaling Technology, Danvers, Mass.). […] Co-treatment with wortmannin blocked parstastin (1-26)-mediated Akt phorsphorylation (FIG. 24C).
To determine whether parstatin (1-26) protects the heart by a mechanism involving nitric oxide synthase (NOS), rats were treated with L-NMA (15 μg/Kg, a general NOS inhibitor), with or without parstatin (1-26) (1 μg/Kg) prior to ischemia. […] The role of parstatin (1-26) in endothelial NOS activation was further evaluated by measuring the phosphorylation of Ser1177. In these experiments, the left ventricular free wall tissue was homogenized and immunoblot analysis was performed using an anti-phospho-endothelial NOS (Ser1177) primary antibody (Cell Signaling Technology, Danvers, Mass.). […] In addition, nitrite and nitrate content, a marker of endothelial NOS activity, was measured from both ischemic and non-ischemic tissues. Ischemia and 120 min reperfusion caused an increase in the production of NO in the ischemic tissue from the control group when compared to the sham group (FIG. 25D). […] Pre-ischemic treatment with parstatin (1-26) further increased NO content in the ischemic tissue by an additional 1.4-fold over control values and 2.0-fold over sham treated values.

[2] = system: cGMP content of myocardium; assay: myocardial cGMP ELISA after ischemia-reperfusion; assay type: in vivo, rat; conditions: 1 μg/kg, 120 min reperfusion
Description: To determine whether […] (1-26) protects the heart by a mechanism involving soluble guanylyl cyclase (sGC), rats were treated with ODQ (1 mg/kg, a sGC inhibitor) with or without […] (1-26) (1 μg/kg) prior to ischemia. ODQ abolished the reduction in infarct size caused by […] (1-26), but had no effect alone (FIG. 26A). Tissue accumulation of cGMP was measured after 120 min reperfusion from ischemic and non-ischemic myocardium. In these experiments, the cGMP was measured in the rat hearts by specific ELISA kits according to the manufacturer's instructions (Cayman Chemical, Ann Arbor, Mich.). The hearts (n=6/group) were excised after 120 min reperfusion and immediately frozen in liquid nitrogen, then stored at -80° C. until assayed. Frozen myocardial tissue samples in liquid nitrogen were ground to a fine powder in a stainless-steel mortar. Frozen tissue was dropped into 5-10 volumes (ml of solution/gram of tissue) of 5% trichloroacetic acid (TCA) in water. The samples were homogenized on ice […] using a polytron-type homogenizer. Centrifugation was at 30,000 r.p.m. at room temperature and the supernatant was collected for quantitative immunoassay of cGMP. […] (1-26) treatment group when compared to the control and sham treated groups respectively (FIG. 26B). No difference in cGMP tissue content was observed between the ischemic and non-ischemic zones within the control groups, however, […]

HUVEC cells [3] = assay: [3H]-thymidine incorporation (DNA synthesis); assay type: cell-based, human; conditions: serum, bFGF or VEGF; comparison peptides 10 μM
Description: The ability of parstatin (1-41) to inhibit DNA synthesis of endothelial cells was assessed in thymidine incorporation assays. HUVEC cells were grown until 60-80% confluent in 24-well plates. Cells were treated with indicated peptides in serum-free medium containing either 0.5% BSA, or VEGF, or bFGF, or medium containing 5% FBS, or epidermal growth factor (EGF), or heparin-binging EGF (HB-EGF) for 18 hours. All cells were pulsed with 0.5 μCi/ml [3H]-thymidine (ICN Biomedicals Inc., Irvine Calif.) for additional 6 h. Radioactivity incorporated into DNA was determined in liquid scintillation counter.

HUVEC cells [4] = assay: Fibrin gel in vitro angiogenesis assay; assay type: cell-based, human; conditions: VEGF/bFGF-induced, 24 h; other peptides 10 μM
Description: The ability of endothelial cells to form three-dimensional structures was analyzed using a Fibrin gel in vitro angiogenesis assay kit (Chemicon International Inc. Temecula, Calif.). Fibrin gels were formed in 48-well plates by mixing fibrinogen and thrombin solutions, according to manufacturer instructions. Cells (40,000 cells/well) were then added and cultured in medium containing 2% FBS for 18 h. After the addition of a second layer of fibrin gel, endothelial cells sandwiched within fibrin gels were cultured in serum-free medium containing 0.5% bovine serum albumin (BSA) and the combination of VEGF/bFGF for 24 h. Where indicated, parstatin (1-41) or other indicated peptides were added. Capillary-like network was photographed and measured.

HUVEC cells [5] = assay: Matrigel capillary tube-like formation; assay type: cell-based, human; conditions: 5% FBS, 18 h; parstatin (1-41) 0.3 to 10 μM, other peptides 10 μM
Description: Primary human umbilical vein endothelial cells (HUVEC cells) were obtained from freshly delivered umbilical cords from caesarean births and were grown in M199 medium with 20% fetal bovine serum (FBS) supplemented with endothelial cell growth supplement and heparin. One of the most specific tests for angiogenesis is the measurement of the ability of endothelial cells to form capillary-like structures (i.e., tube formation). Tube formation is a multi-step process involving cell adhesion, migration and differentiation. Tube formation can be enhanced by use of Matrigel or fibrin clots to coat plastic culture dishes and it is an accepted model of angiogenesis.
Matrigel™ (Becton Dickinson Labware, N.J., USA) is a mixture of basement membrane components extracted from the Englebreth-Holm-Swarm tumor. […] Matrigel™ (250 μl) was added to each well of a 24-well plate and allowed to polymerize. A suspension of 40,000 HUVEC cells in M199 medium containing 5% FBS was added into each well coated with Matrigel™.
Cells were treated with increasing concentrations of human parstatin (1-41), scrambled parstatin, or parstatin (24-41) fragment. After 18 hours of incubation, the medium was removed, and the cells were fixed and stained, and tube-like structures were quantitated.

| Sequence | phosphorylation of Akt/Ser473 ([1]; 1 μg/kg pre-ischemic, 5 min reperfusion, vs control rats) | endothelial NOS phosphorylation (Ser1177) ([1]; 1 μg/kg, 5 min reperfusion) | Ser1177 phosphorylation with wortmannin ([1]; wortmannin) | Akt phosphorylation with wortmannin co-treatment ([1]; wortmannin 15 μg/kg) | cGMP production in the ischemic zone vs non-ischemic zone [2] [fold] | tissue accumulation of cGMP in the ischemic tissue compared to control [2] [fold] | tissue accumulation of cGMP in the ischemic tissue compared to sham [2] [fold] | DNA synthesis in HUVEC cells (HUVEC cells [3]) | capillary-like network (total capillary tube length) in fibrin gels (HUVEC cells [4]) | tube formation on Matrigel (HUVEC cells [5]) |
| --- | --- | --- | --- | --- | --- | --- | --- | --- | --- | --- |
| MGPRRLLLVAACFSLCGPLLSARTRA (listed as Homo sapiens) [parstatin (1-26)] | increased phosphorylation | increased endothelial NOS phosphorylation | blocked | blocked | 2.2 | 4.6 | 10.9 | – | – | – |
| TRARRPESKATNATLDPR (listed as Homo sapiens) [parstatin (24-41), 24-41 (18 amino acids) of human parstatin, hydrophilic fragment] | – | – | – | – | – | – | – | did not cause any significant effect | did not affect | did not affect |
